Patent US11672799B2, “1,4-disubstituted pyridazine quinolne analogs there of and methods for treating SMN-deficiency-related conditions” (Novartis AG, priority 2013, dated 2023)
pEC50: −log10 of the molar value. Where two headings read alike, the source gives them in different places.

System: SMN protein
Assay: cellular SMN ELISA (SMN protein elevation) in myoblast cell line from SMNdelta7 mouse model
Type: cell-based
Experimental: A cellular SMN ELISA was used to measure the effects of low molecular weight compounds on SMN protein elevation. Cells from a myoblast cell line derived from the SMNdelta7 mouse model (kind gift from Steve Burden, NYU) were seeded into a 384-well plate at a density of 3000 cells/well and treated with compounds for 24 hours. ELISA capture plates were prepared by coating 384-well plates (Immulon 4HBX) with 0.5 ug/mL of anti-SMN mAb (BD Science, Catalog number 610647) at 4° C. overnight. The plates were washed 5 times with 110 uL of PBS-Tween (0.05% Tween-20, PBST), blocked with 100 uL of 1% BSA in PBST for 2 hours and washed (5 times) with 100 uL of PBST. After 24 hours of compound treatment cells were lysed in a modified RIPA-buffer, on ice for 1 hour. 20 uL of lysate and 20 uL of 1% BSA were then added to the ELISA capture plates and incubated at 4° C. overnight. Plates were washed (5 times) with PBST and then incubated with 1:100 dilution of primary rabbit anti-SMN polyclonal antibody (Santa cruz, Catalog number SC-15320) at room temperature for 1 hour and subsequently washed (5 times) with 110 uL of PBST. This was followed by addition of 1:100 Goat anti-Rabbit IgG-HRP linked (Cell Signaling, Catalog number 7074) secondary antibody for 1 hour. Plates were then washed with PBST and incubated with 40 uL TMB substrate (Cell Signaling, Catalog number 7004 L) at room temperature for 1-10 minutes with shaking. The reaction was stopped by addition of 40 uL of stop solution (Cell signaling, Catalog number 7002 L) and absorption was measured at 450 nm. Data was reported as fold activation over DMSO control, and EC50.
ELISA assay condition 1: compound concentration range 20 nM-10 uM; ELISA assay condition 2: compound concentration 100 pM-10 uM. Data generated in Biological Example 1 using ELISA conditions 1 or 2.

[1] = Biological Example 1, SMN ELISA, SMNdelta7 mouse myoblasts, 24 hours compound treatment
[2] = Biological Example 1, SMN ELISA, SMNdelta7 mouse myoblasts, 24 hours compound treatment, read-out: SMN Activity (EC50)

SMILES	SMN Activity (fold activation over DMSO control) [1] [fold]	pEC50 [2]	Fold activation (comparison of unsubstituted, ortho-hydroxy and ortho-alkoxy pyridazines, as in Biological Example 1)	pEC50 (comparison of unsubstituted, ortho-hydroxy and ortho-alkoxy pyridazines, as in Biological Example 1, read-out: SMN ELISA EC50)
Cc1cc(N2CCCC2)c2cc(-c3ccc(N(C)C4CC(C)(C)NC(C)(C)C4)nn3)c(O)cc2n1 [Example 10-2, 2-methyl-6-(6-(methyl(2,2,6,6-tetramethylpiperidin-4-yl)amino)pyridazin-3-yl)-4-(pyrrolidin-1-yl)quinolin-7-ol]	2.6	7.19		
Cc1cc(N2CCOCC2)c2cc(-c3ccc(N(C)C4CC(C)(C)NC(C)(C)C4)nn3)c(O)cc2n1 [Example 10-3, 2-Methyl-6-(6-(methyl(2,2,6,6-tetramethylpiperidin-4-yl)amino)pyridazin-3-yl)-4-morpholinoquinolin-7-ol]	2.6	6.96		
Cc1cc(N(C)C)c2cc(-c3ccc(N(C)C4CC(C)(C)NC(C)(C)C4)nn3)c(O)cc2n1 [Example 10-4, 4-(Dimethylamino)-2-methyl-6-(6-(methyl(2,2,6,6-tetramethylpiperidin-4-yl)amino)pyridazin-3-yl)quinolin-7-ol]	2.7	7.92		
CCOc1cc(C)nc2cc(O)c(-c3ccc(N(C)C4CC(C)(C)NC(C)(C)C4)nn3)cc12 [Example 10-5, 4-Ethoxy-2-methyl-6-(6-(methyl(2,2,6,6-tetramethylpiperidin-4-yl)amino)pyridazin-3-yl)quinolin-7-ol]	3.3	7.70		
Cc1cc(-c2cnn(C)c2)c2cc(-c3ccc(N(C)C4CC(C)(C)NC(C)(C)C4)nn3)c(O)cc2n1 [Example 11-1, 2-methyl-6-(6-(methyl(2,2,6,6-tetramethylpiperidin-4-yl)amino)pyridazin-3-yl)-4-(1-methyl-1H-pyrazol-4-yl)quinolin-7-ol]	2.6	7.22		
COc1ccnc2cc(-c3ccc(N(C)C4CC(C)(C)NC(C)(C)C4)nn3)c(O)cc12 [Example 12-1, 4-methoxy-7-(6-(methyl(2,2,6,6-tetramethylpiperidin-4-yl)amino)pyridazin-3-yl)quinolin-6-ol]	2.4	8.52		
CN(c1ccc(-c2cc3nccnc3cc2O)nn1)C1CC(C)(C)NC(C)(C)C1 [Example 13-1, 7-(6-(methyl(2,2,6,6-tetramethylpiperidin-4-yl)amino)pyridazin-3-yl)quinoxalin-6-ol]	2.7	8.05	2.7 —	8.05
CN(c1ccc(-c2cc3cc(C4CCOCC4)cnc3cc2O)nn1)C1CC(C)(C)NC(C)(C)C1 [Example 14-1, 6-(6-(methyl(2,2,6,6-tetramethylpiperidin-4-yl)amino)pyridazin-3-yl)-3-(tetrahydro-2H-pyran-4-yl)quinolin-7-ol]	2.91	7.20		
CN(c1ccc(-c2cc3ncc(Cl)cc3cc2O)nn1)C1CC(C)(C)NC(C)(C)C1 [Example 15-1, 3-chloro-7-(6-(methyl(2,2,6,6-tetramethylpiperidin-4-yl)amino)pyridazin-3-yl)quinolin-6-ol]	2.68	7.80		
CN(c1ccc(-c2cc3ncc(Br)cc3cc2O)nn1)C1CC(C)(C)NC(C)(C)C1 [Example 15-2, 3-bromo-7-(6-(methyl(2,2,6,6-tetramethylpiperidin-4-yl)amino)pyridazin-3-yl)quinolin-6-ol]	2.52	7.72		
Cc1cnc2cc(-c3ccc(N(C)C4CC(C)(C)NC(C)(C)C4)nn3)c(O)cc2c1 [Example 15-3, 3-methyl-7-(6-(methyl(2,2,6,6-tetramethylpiperidin-4-yl)amino)pyridazin-3-yl)quinolin-6-ol]	3.28	8.15		
Cc1cnc2cc(-c3ccc(N(C)C4CC(C)(C)NC(C)(C)C4)nn3)c(O)c(Br)c2c1 [Example 16-1, 5-bromo-3-methyl-7-(6-(methyl(2,2,6,6-tetramethylpiperidin-4-yl)amino)pyridazin-3-yl)quinolin-6-ol]	2.44	6.59		
CN(c1ccc(-c2cc3c(cc2O)c(=O)ccn3C)nn1)C1CC(C)(C)NC(C)(C)C1 [Example 17-1, 6-hydroxy-1-methyl-7-(6-(methyl(2,2,6,6-tetramethylpiperidin-4-yl)amino)pyridazin-3-yl)quinolin-4(1H)-one]	2.56	6.16		
Cc1nc2cc(O)c(-c3ccc(N(C)C4CC(C)(C)NC(C)(C)C4)nn3)cc2nc1C [Example 18-1, 2,3-dimethyl-7-(6-(methyl(2,2,6,6-tetramethylpiperidin-4-yl)amino)pyridazin-3-yl)quinoxalin-6-ol]	3.24	7.82		
Cc1cnc2cc(O)c(-c3ccc(N(C)C4CC(C)(C)NC(C)(C)C4)nn3)cc2n1 [Example 18-2, 2-methyl-7-(6-(methyl(2,2,6,6-tetramethylpiperidin-4-yl)amino)pyridazin-3-yl)quinoxalin-6-ol]	3.31	8.05		
Cc1cnc2cc(-c3ccc(N(C)C4CC(C)(C)NC(C)(C)C4)nn3)c(O)cc2n1 [Example 18-3, 3-methyl-7-(6-(methyl(2,2,6,6-tetramethylpiperidin-4-yl)amino)pyridazin-3-yl)quinoxalin-6-ol]	2.72	7.80		
COc1ccnc2cc(O)c(-c3ccc(N(C)C4CC(C)(C)NC(C)(C)C4)nn3)cc12 [Example 19-1, 4-methoxy-6-(6-(methyl(2,2,6,6-tetramethylpiperidin-4-yl)amino)pyridazin-3-yl)quinolin-7-ol]	2.65	8.00		
Cc1cc(N2CCC2)c2cc(-c3ccc(N(C)C4CC(C)(C)NC(C)(C)C4)nn3)c(O)cc2n1 [Example 20-1, 4-(azetidin-1-yl)-2-methyl-6-(6-(methyl(2,2,6,6-tetramethylpiperidin-4-yl)amino)pyridazin-3-yl)quinolin-7-ol]	2.86	7.08		
Cc1cc(C#N)c2cc(-c3ccc(N(C)C4CC(C)(C)NC(C)(C)C4)nn3)c(O)cc2n1 [Example 20-2, 7-hydroxy-2-methyl-6-(6-(methyl(2,2,6,6-tetramethylpiperidin-4-yl)amino)pyridazin-3-yl)quinoline-4-carbonitrile]	2.68	7.32		
Cc1cc(C2CC2)c2cc(-c3ccc(N(C)C4CC(C)(C)NC(C)(C)C4)nn3)c(O)cc2n1 [Example 20-3, 4-cyclopropyl-2-methyl-6-(6-(methyl(2,2,6,6-tetramethylpiperidin-4-yl)amino)pyridazin-3-yl)quinolin-7-ol]	2.72	7.19		
Cc1cc(C2=CCOCC2)c2cc(-c3ccc(N(C)C4CC(C)(C)NC(C)(C)C4)nn3)c(O)cc2n1 [Example 20-4, 4-(3,6-dihydro-2H-pyran-4-yl)-2-methyl-6-(6-(methyl(2,2,6,6-tetramethylpiperidin-4-yl)amino)pyridazin-3-yl)quinolin-7-ol]	2.72	6.78		
